Experimental data as given in patent US9072734B2, “Quaternary ammonium salt compounds” (Teijin Pharma Limited, priority 2009, dated 2015).
Where a name gives a salt, the structure may show the parent alone.

Tests used:
[1] = target: T1, human M3 muscarinic receptor (Homo sapiens, UniProt P20309); experiment: Competition binding assays to human M3 muscarinic receptor ([3H]-NMS displacement, membrane fractions); settings: competition with 1 nM [3H]-NMS
T1 construct: expressed in transfected cells; host or cells: CHO-K1
T1 sequence (P20309 whole entry): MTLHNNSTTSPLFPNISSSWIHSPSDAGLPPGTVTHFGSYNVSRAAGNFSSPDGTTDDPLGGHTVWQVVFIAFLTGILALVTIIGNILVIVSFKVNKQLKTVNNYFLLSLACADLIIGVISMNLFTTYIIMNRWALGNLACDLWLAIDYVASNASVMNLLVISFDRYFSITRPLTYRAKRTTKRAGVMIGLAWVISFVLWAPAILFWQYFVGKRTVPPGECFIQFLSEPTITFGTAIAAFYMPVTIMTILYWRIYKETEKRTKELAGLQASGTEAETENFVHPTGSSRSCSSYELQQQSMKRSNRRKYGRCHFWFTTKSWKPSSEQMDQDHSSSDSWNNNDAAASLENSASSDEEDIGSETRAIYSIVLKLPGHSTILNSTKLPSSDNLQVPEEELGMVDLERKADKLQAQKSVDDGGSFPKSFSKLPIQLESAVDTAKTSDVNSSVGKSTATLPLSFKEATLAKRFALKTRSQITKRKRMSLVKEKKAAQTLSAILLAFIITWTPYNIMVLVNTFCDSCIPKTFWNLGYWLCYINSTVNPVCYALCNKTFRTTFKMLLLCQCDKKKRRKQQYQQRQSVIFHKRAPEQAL
Method: Membrane fractions of human M3 muscarinic receptor were purchased from PerkinElmer, Inc. and stored at −80° C. until use. Phosphate buffered saline (PBS(−), Invitrogen, Co.) was used as assay buffer. The membrane fractions of human M3 muscarinic receptor (10-15 μg of membrane protein) and 1 nM L-[N-methyl-3H]scopolamine methyl chloride ([3H]—NMS) (NET636, 2.59 TBq/mmol, PerkinElmer, Inc.) were added to a final volume of 100 μL and incubated for 2 hours at room temperature (total binding). […] The amount of nonspecific binding was determined in the presence of 5 μM atoropine. […] The filter plates were washed three times with a washing solution (50 mM Tris hydrochloric acid pH 7.4, 0.9% sodium chloride) to remove unbound radioactivity. The plates were then dried and 40 μL Microscint-20 liquid TopCount microplate scintillation cocktail (PerkinElmer Inc.) was added and plates were counted in a Packard TopCount liquid scintillation counter (PerkinElmer, Inc.). The percentage of the binding inhibition by the test compound was calculated according to the following formula. (%)Percentage of binding inhibition=[(Radioactivity of test compound-added sample−Amount of nonspecific binding)/(Amount of total binding−Amount of nonspecific binding)]×100 […]

[2] = target: T2, human β2 adrenergic receptor (Homo sapiens, UniProt P07550); experiment: Whole-cell cAMP Flashplate assay using CHO-K1 cells stably expressing human β2 adrenergic receptor; type: cell-based; settings: cAMP production
T2 construct: expressed in transfected cells; host or cells: CHO-K1
T2 sequence (P07550 whole entry): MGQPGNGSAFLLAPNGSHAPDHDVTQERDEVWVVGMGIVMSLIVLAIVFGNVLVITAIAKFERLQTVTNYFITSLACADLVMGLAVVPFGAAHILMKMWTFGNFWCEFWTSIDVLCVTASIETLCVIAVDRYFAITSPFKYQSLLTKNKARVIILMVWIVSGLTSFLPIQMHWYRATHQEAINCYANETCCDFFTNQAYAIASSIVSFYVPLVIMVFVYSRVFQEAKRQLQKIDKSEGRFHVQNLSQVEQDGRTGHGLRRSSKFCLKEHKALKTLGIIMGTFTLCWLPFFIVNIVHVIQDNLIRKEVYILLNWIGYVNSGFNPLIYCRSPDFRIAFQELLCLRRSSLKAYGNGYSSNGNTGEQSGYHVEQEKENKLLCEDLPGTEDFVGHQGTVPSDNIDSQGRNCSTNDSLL

IC50 [1]	EC50 [2]	SMILES
< 10 nM	0.3 nM	COc1cc(NC(=O)CCCCc2ccc(-c3ccccc3)c(NC(=O)OC3CC[N+](C)(C)CC3)c2)c(Cl)cc1CNC[C@H](O)c1ccc(O)c2[nH]c(=O)ccc12 [Example 51, 4-({[5-(4-{[2-chloro-4-({[(2R)-2-hydroxy-2-(8-hydroxy-2-oxo-1,2-dihydroquinolin-5-yl)ethyl]amino}methyl)-5-methoxyphenyl]carbamoyl}butyl)-2-phenylphenyl]carbamoyl}oxy)-1,1-dimethylpiperidin-1-ium trifluoroacetate]
< 10 nM	1.3 nM	C[N+]1(C)CCC(OC(=O)Nc2cc(CCC(=O)Nc3ccc(CNC[C@H](O)c4ccc(O)c5[nH]c(=O)ccc45)cc3)ccc2-c2ccccc2)CC1 [Example 1, 4-({[5-(2-{[4-({[(2R)-2-hydroxy-2-(8-hydroxy-2-oxo-1,2-dihydroquinolin-5-yl)ethyl]amino}methyl)phenyl]carbamoyl}ethyl)-2-phenylphenyl]carbamoyl}oxy)-1,1-dimethylpiperidin-1-ium trifluoroacetate]
